Results reported in ChEMBL document CHEMBL5728299, “Compounds and compositions for inhibiting the activity of SHP2” (2021).

Experiment: After 30-60 minutes incubation at 25° C., the surrogate substrate DiFMUP (Invitrogen, cat #D6567) was added to the reaction and incubated at 25° C. for 30 minutes. The reaction was then quenched by the addition of 5 μl of a 160 μM solution of bpV(Phen) (Enzo Life Sciences cat #ALX-270-204). The fluorescence signal was monitored using a microplate reader (Envision, Perki-Elmer) using excitation and emission wavelengths of 340 nm and 450 nm, respectively. The inhibitor dose response curves were analyzed using normalized IC50 regression curve fitting with control based normalization.

**Q.** With `CC1(CN)CCN(c2nnc(Sc3cccc(NC(=O)c4cnc5ccccn5c4=O)c3Cl)c(N)n2)CC1` as the molecule, how does the IC50 read?
**A.** Its IC50 is 173 nM.
